Source: patent publication US7749730B2, “High throughput screening assay for the TRPM5 ion channel” (Redpoint Bio Corporation, priority 2005, dated 2010)

Experiments:
Assay type in all cases: cell-based
KCl response = experiment: KCl counterscreen (membrane potential dye, 20 mM KCl stimulus); conditions: TRPM5-expressing cells
Protocol: KCl activates a number of ion channels, but not TRPM5. Therefore, KCl can be used as a counterscreen to identify modulating compounds specific for TRPM5.
(§1) The ideal blocker would block TRPM5 but not other channels. The TRPM5 assay is conducted as described in Example 3, utilizing a membrane potential dye. A test compound is added, and the cells are then stimulated with ATP to trigger the channel, leading to a dye response. The process is shown schematically in FIG. 7. The KCl counterscreen is performed as described in Example 3, with identical cells, pretreated with the same compound, but the stimulus was 20 mM KCl, not ATP. KCl stimulated and unstimulated responses are used as controls. […] An additional specificity assay utilizes a Ca++ flux dye (Calcium 3 Dye, Part No. R8091) to determine whether or not the compound interferes with agonist-induced Ca++ flux response.

[1] = test system: agonist-induced Ca++ flux response; experiment: Ca++ flux assay (Calcium 3 Dye)
Protocol: as §1

TRPM5 [2] = target: T1, TRPM5 (Homo sapiens, UniProt Q9NZQ8); experiment: TRPM5 membrane potential dye assay (FLIPR), cells stimulated with ATP; design: the full length hTRPM5 was amplified by PCR using GC Melt; expressed in transfected cells; conditions: ATP stimulus
T1 sequence (Q9NZQ8 1-1165): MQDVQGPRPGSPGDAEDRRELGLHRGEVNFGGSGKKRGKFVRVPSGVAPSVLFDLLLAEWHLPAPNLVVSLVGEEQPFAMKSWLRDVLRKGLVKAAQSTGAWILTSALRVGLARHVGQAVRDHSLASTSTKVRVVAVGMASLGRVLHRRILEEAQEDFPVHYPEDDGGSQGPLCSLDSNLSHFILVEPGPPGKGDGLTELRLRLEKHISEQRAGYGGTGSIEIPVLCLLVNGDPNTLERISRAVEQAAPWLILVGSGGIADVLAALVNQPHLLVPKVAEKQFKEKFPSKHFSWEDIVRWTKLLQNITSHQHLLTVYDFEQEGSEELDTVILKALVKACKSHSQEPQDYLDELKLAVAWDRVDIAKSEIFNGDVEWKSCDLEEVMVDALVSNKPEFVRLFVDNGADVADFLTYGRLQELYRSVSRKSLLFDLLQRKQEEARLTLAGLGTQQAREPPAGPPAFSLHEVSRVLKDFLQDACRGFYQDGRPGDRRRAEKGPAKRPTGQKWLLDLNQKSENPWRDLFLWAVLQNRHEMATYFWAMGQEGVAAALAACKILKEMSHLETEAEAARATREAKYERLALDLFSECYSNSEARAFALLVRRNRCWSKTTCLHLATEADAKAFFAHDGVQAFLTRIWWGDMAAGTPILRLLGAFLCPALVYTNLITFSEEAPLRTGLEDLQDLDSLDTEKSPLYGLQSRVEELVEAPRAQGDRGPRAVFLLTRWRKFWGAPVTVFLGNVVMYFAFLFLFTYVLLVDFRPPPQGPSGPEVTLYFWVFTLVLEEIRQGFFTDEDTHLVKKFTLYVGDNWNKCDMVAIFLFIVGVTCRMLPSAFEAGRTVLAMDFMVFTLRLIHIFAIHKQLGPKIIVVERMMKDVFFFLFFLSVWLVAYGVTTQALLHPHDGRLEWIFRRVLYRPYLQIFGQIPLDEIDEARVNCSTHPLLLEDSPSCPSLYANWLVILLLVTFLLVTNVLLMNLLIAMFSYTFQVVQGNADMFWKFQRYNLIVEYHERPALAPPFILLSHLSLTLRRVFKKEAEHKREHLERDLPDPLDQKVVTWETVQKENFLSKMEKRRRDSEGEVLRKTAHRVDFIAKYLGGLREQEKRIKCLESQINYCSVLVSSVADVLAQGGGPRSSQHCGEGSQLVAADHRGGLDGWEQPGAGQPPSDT
Protocol: TRPM5 stably expressed in HEK cells was analyzed for its ability to respond to different concentrations of several GPCR agonists. The assay was performed on a FLIPR® using the excitation 510-545 nm and emission 565-625 nm filter sets. Assay plates containing stably expressing HEK cells were loaded with 1× Membrane Potential Assay Dye Red (Molecular Devices) for one hour in a 37° C. and 5% CO2 incubator. The plates were then removed from the incubator and equilibrated to room temperature for 15 minutes before reading on the FLIPR®. The plates were read on the FLIPR® for a total of 3 minutes. Baseline fluorescence was obtained on the FLIPR® for 10 seconds followed by addition of each agonist by the FLIPR® and read for an additional 2 minutes and 50 seconds. […] The values on the graph represent the difference in the maximum minus the minimum fluorescence upon agonist addition. Individual clones are represented by clone number, while the pool of clones represents the sum of all cells that were resistant to selection. In all cases, clone 1 gave the strongest response to all 3 agonists (ATP, carbachol, and thrombin peptide, FIGS. 5A-5C, respectively). Clone 5 and pooled clones generated a lower response in comparison to clone 1. However, both the clone 5 and pool responses were a minimum 3-fold higher than fluorescence in non-transfected cells.
Specificity of potential activating compounds may be identified using suboptimal concentrations of agents that increase intracellular calcium levels. In this type of assay, rather than using a high concentration of, for example carbachol, a reduced concentration is added to TRPM5-expressing cells with or without an additional test compound. Enhancers of TRPM5 activity are those test compounds that increase the fluorescent intensity in reduced carbachol treated cells, to the level seen in cells treated to a high dose.
A carbachol dose response curve was generated for the TRPM5 expressing cells so that the suboptimal concentration range could be determined. […]

TRPM5 [3] = target: T1, TRPM5; experiment: Membrane potential assay in transiently TRPM5-transfected HEK 293 cells (FLEXstation); design: the full length hTRPM5 was amplified by PCR using GC Melt; expressed in transfected cells; host or cells: HEK 293 (ATCC), transient transfection with Lipofectamine 2000; conditions: for TRPM5 response to agonist (relative fluorescence): within the first 30 seconds of agonist addition, FMP dye
Protocol: As described in greater detail below, HEK 293 cells, transiently transfected with a plasmid bearing the human TRPM5 gene, were used to develop the high throughput screening assay. Indirect measurement of the changes in Na^+ ions within the HEK 293 cells were made using a FMP dye and stimulation of the cells using calcium activating agents.
1.0×10^6 HEK 293 cells (ATCC) were plated in each well of a 6-well tissue culture dish overnight. The following day, cells were transfected with 4 μg of a pcDNA3.2 vector containing TRPM5 cDNA and 8 μl of Lipofectamine 2000 (Invitrogen), according to the manufacturer's protocol, and incubated overnight. The following day, transfected cells were trypsinized and seeded into 96-well black, clear bottom, poly-D-lysine plates (Corning) at a density of 70,000 cells/well in a 100 μl volume and incubated in a 37° C./5% CO2 incubator overnight.
Once the expression of TRPM5 was confirmed in the HEK cells, 100 μl of the Blue or Red FMP dye (Molecular Devices) was added to each well of plates seeded with the transiently transfected cells. The plate was then incubated in a 37° C./5% CO2 incubator for 1 hour. The plate was read in a FLEXStation microplate reader (Molecular Devices) with an excitation of 530 nm and an emission of 565 nm. The fluorescence was monitored for 3 minutes upon exposure of the cells to a calcium activating agent (carbachol, thrombin peptide or ATP).

C=CCOc1ccc(/C=N/NC(=O)CSCc2cccc(Br)c2)cc1OC [compound 1]
effect on KCl response (KCl response): does not alter KCl or Ca++ responses
effect on Ca++ flux response [1]: does not alter KCl or Ca++ responses
inhibition of the TRPM5 response (TRPM5 [2]): dose responsive inhibition of the TRPM5 response

NC1C(=O)/C(=C\c2cc([N+](=O)[O-])cc([N+](=O)[O-])c2O)SC1=S (centres unmarked) [Compound F001344,A3]
effect on KCl response (KCl response): inhibits TRPM5, but also the KCl responses
inhibition of the TRPM5 response (TRPM5 [2]): inhibits TRPM5

O=c1[nH]c(SCc2ccccc2)nc(O)c1C(c1ccccc1)c1ccccc1 [Compound F0013488,C13]
effect on Ca++ flux response [1]: activates the Ca++ flux response
inhibition of the TRPM5 response (TRPM5 [2]): inhibits TRPM5

Nc1ncnc2c1ncn2[C@@H]1O[C@H](COP(=O)(O)OP(=O)(O)OP(=O)(O)O)[C@@H](O)[C@H]1O [ATP, adenosine triphosphate]
TRPM5 response to agonist (relative fluorescence) (TRPM5 [3]): strong spike in relative fluorescence

C[N+](C)(C)CCOC(N)=O [carbachol]
TRPM5 response to agonist (relative fluorescence) (TRPM5 [3]): strong spike in relative fluorescence

thrombin
fluorescence over background (TRPM5 [3]; versus mock treated cells): greater than 4 fold
TRPM5 response to agonist (relative fluorescence) (TRPM5 [3]): strong spike in relative fluorescence
